Assay results: patent publication US10000499B2, “Methyl diazepane orexin receptor antagonists” (MERCK SHARP & DOHME CORP., priority 2014, dated 2018)

Tests used:
rat orexin-1 receptor = target: T1, rat orexin-1 receptor (Rattus norvegicus, UniProt P56718); assay: FLIPR Ca2+ flux assay, OX1R; type: cell-based; details: CHO cells expressing rat orexin-1 receptor; agonist 70 pM Ala-6,12 orexin-A
T1 construct: expressed in transfected cells; host or cells: CHO cells (grown under G418 selection)
T1 sequence (P56718 1-416): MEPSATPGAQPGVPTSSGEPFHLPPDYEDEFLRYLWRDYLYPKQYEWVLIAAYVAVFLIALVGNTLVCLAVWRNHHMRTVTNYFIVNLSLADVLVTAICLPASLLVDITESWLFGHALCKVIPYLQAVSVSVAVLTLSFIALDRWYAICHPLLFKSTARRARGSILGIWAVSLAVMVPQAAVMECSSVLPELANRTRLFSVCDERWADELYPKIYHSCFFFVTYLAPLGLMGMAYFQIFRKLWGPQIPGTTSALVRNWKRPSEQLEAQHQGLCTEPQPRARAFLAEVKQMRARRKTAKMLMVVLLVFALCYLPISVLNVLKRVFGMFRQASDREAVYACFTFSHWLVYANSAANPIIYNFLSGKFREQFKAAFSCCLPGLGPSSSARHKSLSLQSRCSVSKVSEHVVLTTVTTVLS
Experimental: (§1) For intracellular calcium measurements, Chinese hamster ovary (CHO) cells expressing the rat orexin-1 receptor or the human orexin-2 receptor, are grown in Iscove's modified DMEM containing 2 mM L-glutamine, […], 1% hypoxanthine-thymidine supplement, 100 U/ml penicillin, 100 μg/ml streptomycin and 10% heat-inactivated fetal calf serum (FCS). The cells are seeded at 20,000 cells/well into Becton-Dickinson black 384-well clear bottom sterile plates coated with poly-D-lysine. All reagents were from GIBCO-Invitrogen Corp. The seeded plates are incubated overnight at 37° C. and 5% CO2. Ala-6,12 human orexin-A as the agonist is prepared as a 1 mM stock solution in 1% bovine serum albumin (BSA) and diluted in assay buffer (HBSS containing 20 mM HEPES, 0.1% BSA and 2.5 mM probenecid, pH7.4) for use in the assay at a final concentration of 70 pM. Test compounds are prepared as 10 mM stock solution in DMSO, then diluted in 384-well plates, first in DMSO, then assay buffer. On the day of the assay, cells are washed 3 times with 100 μl assay buffer and then incubated for 60 min (37° C., 5% CO2) in 60 μl assay buffer containing 1 μM Fluo-4AM ester, 0.02% pluronic acid, and 1% BSA, The dye loading solution is then aspirated and cells are washed 3 times with 100 μl assay buffer, 30 μl of that same buffer is left in each well. Within the Fluorescent Imaging Plate Reader (FLIPR, Molecular Devices), test compounds are added to the plate in a volume of 25 μl, incubated for 5 min and finally 25 μl of agonist is added. Fluorescence is measured for each well at 1 second intervals for 5 minutes and the height of each fluorescence peak is compared to the height of the fluorescence peak induced by 70 pM Ala-6,12 orexin-A with buffer in place of antagonist. […] The intrinsic orexin receptor antagonist activity of a compound which may be used in the present invention may be determined by these assays.

human orexin-2 receptor = target: T2, human orexin-2 receptor (Homo sapiens, UniProt O43614); assay: FLIPR Ca2+ flux assay, OX2R; type: cell-based; details: for IC50: CHO cells expressing human orexin-2 receptor, agonist 70 pM Ala-6,12 orexin-A, read-out: OX2R FLIPR; for Fold Selective: OX2R over OX1R, from FLIPR values
T2 construct: expressed in transfected cells; host or cells: CHO cells (grown under G418 selection)
T2 sequence (O43614 1-444): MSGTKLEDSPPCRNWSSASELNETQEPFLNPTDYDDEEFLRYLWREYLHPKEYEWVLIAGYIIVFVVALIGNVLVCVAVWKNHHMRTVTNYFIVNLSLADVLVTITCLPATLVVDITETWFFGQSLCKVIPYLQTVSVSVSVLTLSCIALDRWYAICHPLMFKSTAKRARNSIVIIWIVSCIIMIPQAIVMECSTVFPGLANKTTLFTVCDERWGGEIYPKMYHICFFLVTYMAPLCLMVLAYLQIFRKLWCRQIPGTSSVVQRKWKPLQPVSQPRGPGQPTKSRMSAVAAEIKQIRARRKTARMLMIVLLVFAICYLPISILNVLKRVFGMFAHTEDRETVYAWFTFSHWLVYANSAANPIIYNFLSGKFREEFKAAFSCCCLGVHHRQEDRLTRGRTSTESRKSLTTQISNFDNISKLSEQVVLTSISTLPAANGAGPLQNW
Experimental: as §1

Structure (SMILES)	IC50 (rat orexin-1 receptor)	IC50 (human orexin-2 receptor)	Fold Selective (human orexin-2 receptor)
C[C@@H]1CCN(c2nccn3ccnc23)CCN1C(=O)c1ccccc1C1(C#N)CC1 [Example 21, (R)-1-(2-(4-(imidazo[1,2-a]pyrazin-8-yl)-7-methyl-1,4-diazepane-1-carbonyl)phenyl)cyclopropanecarbonitrile]	> 10 µM	0.065 µM	153
COc1ccnc(N2CC[C@@H](C)N(C(=O)c3ccccc3C3(C#N)CC3)CC2)c1 [Example 4, 1-(2-{[(7R)-4-(4-methoxypyridin-2-yl)-7-methyl-1,4-diazepan-1-yl]carbonyl}phenyl)cyclopropane-carbonitrile]	> 10 µM	0.163 µM	61
COc1ccnc(N2CC[C@@H](C)N(C(=O)c3cccnc3OCC(F)(F)F)CC2)c1 [Example 7, (5R)-1-(4-methoxypyridin-2-yl)-5-methyl-4-{[2-(2,2,2-trifluoroethoxy)pyridin-3-yl]carbonyl}-1,4-diazepane]	> 10 µM	0.092 µM	108
C[C@@H]1CCN(c2nccn3ccnc23)CCN1C(=O)c1ccccc1C1CC1 [Example 23, 8-{(5R)-4-[(2-cyclopropylphenyl)carbonyl]-5-methyl-1,4-diazepan-1-yl}imidazo[1,2-a]pyrazine]	> 10 µM	0.029 µM	344
